Assay results reported in article PMC6979384, “Characterization of the plant homeodomain (PHD) reader family for their histone tail interactions” (Epigenetics & Chromatin, 2020).

Tests used:
Assay in all cases: Histone peptide microarray
Type in all cases: binding, human
Conditions in all cases: histone peptide array, arrays performed twice, n of 4
[1] = test system: AIRE (PP)
Summary of the method: (§1)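 Purified PHD finger domains fused to GST are screened against 293 synthetic histone peptides bearing one or several post-translational modifications. The protein is used at 0.5 μM, and the signal from four replicate arrays is averaged, with standard deviation given.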

[2] = test system: BAZ2B
Summary of the method: as §1

[3] = test system: BPTF (PB)
Summary of the method: as §1

[4] = test system: CHD4 (PPCC)
Summary of the method: as §1

[5] = test system: CHD5 (PCC)
Summary of the method: as §1

[6] = test system: CHD5 (PPCC)
Summary of the method: as §1

[7] = test system: DIDO1
Summary of the method: as §1

[8] = test system: DPF2 (PPC2W2)
Summary of the method: as §1

[9] = test system: ING1
Summary of the method: as §1

[10] = test system: ING2
Summary of the method: as §1

[11] = test system: ING3
Summary of the method: as §1

[12] = test system: ING4
Summary of the method: as §1

[13] = test system: ING5
Summary of the method: as §1

[14] = test system: KDM4C (TTP)
Summary of the method: as §1

[15] = test system: KDM5A (1)
Summary of the method: as §1

[16] = test system: KDM5A (3)
Summary of the method: as §1

[17] = test system: KDM5B (1)
Summary of the method: as §1

[18] = test system: KDM5B (3)
Summary of the method: as §1

[19] = test system: KDM7A
Summary of the method: as §1

[20] = test system: MLL5
Summary of the method: as §1

[21] = test system: MORC3 (CW)
Summary of the method: as §1

[22] = test system: PHF13
Summary of the method: as §1

[23] = test system: PHF21A
Summary of the method: as §1

[24] = test system: PHF23
Summary of the method: as §1

[25] = test system: PHF2
Summary of the method: as §1

[26] = test system: PHF8
Summary of the method: as §1

[27] = test system: PHRF1 (RP)
Summary of the method: as §1

[28] = test system: RAG2
Summary of the method: as §1

[29] = test system: SP140L
Summary of the method: as §1

[30] = test system: TAF3
Summary of the method: as §1

[31] = test system: TRIM66 (PB)
Summary of the method: as §1

[32] = GST-tagged BPTF (PB = PHD + Bromodomain)
[33] = GST-tagged CHD4 (PPCC = Dual PHD + Dual Chromodomain)
[34] = GST-tagged CHD5 (PCC = PHD + Dual Chromodomain)
[35] = GST-tagged CHD5 (PPCC = Dual PHD + Dual Chromodomain)
[36] = GST-tagged DPF2 (PPC2W2 = Dual PHD + C2W2-type Zn-finger)
[37] = GST-tagged KDM4C (TTP = Tandem Tudor domain + PHD)
[38] = GST-tagged MORC3 (CW = CW-type Zn-finger)
[39] = GST-tagged TRIM66 (PB = PHD + Bromodomain)
[40] = GST-tagged reader, PB = PHD + Bromodomain
[41] = GST-tagged reader, PPCC = Dual PHD + Dual Chromodomain

H4 (11-27): H4 11-27
Array Heatmap signal, AIRE (PP) ([1]; GST-tagged AIRE (PP)): 0.4611
Array Heatmap signal, BAZ2B ([2]; GST-tagged BAZ2B): 0.4866
Array Heatmap signal, BPTF (PB) [3, 32]: 0.3518
Array Heatmap signal, CHD4 (PPCC) [4, 33]: 0.6032
Array Heatmap signal, CHD5 (PCC) [5, 34]: 0.8335
Array Heatmap signal, CHD5 (PPCC) [6, 35]: 0.5646
Array Heatmap signal, DIDO1 ([7]; GST-tagged DIDO1): 0.7393
Array Heatmap signal, DPF2 (PPC2W2) [8, 36]: 0.705
Array Heatmap signal, ING1 ([9]; GST-tagged ING1): 0.5543
Array Heatmap signal, ING2 ([10]; GST-tagged ING2): 0.6025
Array Heatmap signal, ING3 ([11]; GST-tagged ING3): 0.5001
Array Heatmap signal, ING4 ([12]; GST-tagged ING4): 0.4682
Array Heatmap signal, ING5 ([13]; GST-tagged ING5): 0.3644
Array Heatmap signal, KDM4C (TTP) [14, 37]: 0.4895
Array Heatmap signal, KDM5A (1) ([15]; GST-tagged KDM5A (1)): 0.4724
Array Heatmap signal, KDM5A (3) ([16]; GST-tagged KDM5A (3)): 0.4231
Array Heatmap signal, KDM5B (1) ([17]; GST-tagged KDM5B (1)): 0.652
Array Heatmap signal, KDM5B (3) ([18]; GST-tagged KDM5B (3)): 0.4786
Array Heatmap signal, KDM7A ([19]; GST-tagged KDM7A): 0.3743
Array Heatmap signal, MLL5 ([20]; GST-tagged MLL5): 0.5751
Array Heatmap signal, MORC3 (CW) [21, 38]: 0.3632
Array Heatmap signal, PHF13 ([22]; GST-tagged PHF13): 0.6301
Array Heatmap signal, PHF21A ([23]; GST-tagged PHF21A): 0.4899
Array Heatmap signal, PHF23 ([24]; GST-tagged PHF23): 0.5647
Array Heatmap signal, PHF2 ([25]; GST-tagged PHF2): 0.5451
Array Heatmap signal, PHF8 ([26]; GST-tagged PHF8): 0.3468
Array Heatmap signal, PHRF1 (RP) ([27]; GST-tagged PHRF1 (RP)): 0.4565
Array Heatmap signal, RAG2 ([28]; GST-tagged RAG2): 0.2544
Array Heatmap signal, SP140L ([29]; GST-tagged SP140L): 0.3427
Array Heatmap signal, TAF3 ([30]; GST-tagged TAF3): 0.2827
Array Heatmap signal, TRIM66 (PB) [31, 39]: 0.6367

H4K5K8but (1-23): H4 1-23
Array Heatmap signal, AIRE (PP) ([1]; GST-tagged reader): 0.5575
Array Heatmap signal, BAZ2B ([2]; GST-tagged reader): 0.52
Array Heatmap signal, BPTF (PB) [3, 40]: 0.3688
Array Heatmap signal, CHD4 (PPCC) [4, 41]: 0.6049
Array Heatmap signal, CHD5 (PCC) ([5]; GST-tagged reader, PCC = PHD + Dual Chromodomain): 0.8285
Array Heatmap signal, CHD5 (PPCC) [6, 41]: 0.592
Array Heatmap signal, DIDO1 ([7]; GST-tagged reader): 0.6112
Array Heatmap signal, DPF2 (PPC2W2) ([8]; GST-tagged reader, PPC2W2 = Dual PHD + C2W2-type Zn-finger): 0.658
Array Heatmap signal, ING1 ([9]; GST-tagged reader): 0.5231
Array Heatmap signal, ING2 ([10]; GST-tagged reader): 0.5955
Array Heatmap signal, ING3 ([11]; GST-tagged reader): 0.4809
Array Heatmap signal, ING4 ([12]; GST-tagged reader): 0.4968
Array Heatmap signal, ING5 ([13]; GST-tagged reader): 0.3968
Array Heatmap signal, KDM4C (TTP) ([14]; GST-tagged reader, TTP = Tandem Tudor domain + PHD): 0.558
Array Heatmap signal, KDM5A (1) ([15]; GST-tagged reader): 0.515
Array Heatmap signal, KDM5A (3) ([16]; GST-tagged reader): 0.457
Array Heatmap signal, KDM5B (1) ([17]; GST-tagged reader): 0.7062
Array Heatmap signal, KDM5B (3) ([18]; GST-tagged reader): 0.5218
Array Heatmap signal, KDM7A ([19]; GST-tagged reader): 0.4497
Array Heatmap signal, MLL5 ([20]; GST-tagged reader): 0.5399
Array Heatmap signal, MORC3 (CW) ([21]; GST-tagged reader, CW = CW-type Zn-finger): 0.3933
Array Heatmap signal, PHF13 ([22]; GST-tagged reader): 0.6376
Array Heatmap signal, PHF21A ([23]; GST-tagged reader): 0.5071
Array Heatmap signal, PHF23 ([24]; GST-tagged reader): 0.5226
Array Heatmap signal, PHF2 ([25]; GST-tagged reader): 0.4396
Array Heatmap signal, PHF8 ([26]; GST-tagged reader): 0.4044
Array Heatmap signal, PHRF1 (RP) ([27]; GST-tagged reader): 0.4216
Array Heatmap signal, RAG2 ([28]; GST-tagged reader): 0.2516
Array Heatmap signal, SP140L ([29]; GST-tagged reader): 0.399
Array Heatmap signal, TAF3 ([30]; GST-tagged reader): 0.2895
Array Heatmap signal, TRIM66 (PB) [31, 40]: 0.5587

H4K5ac + K8ac + K12ac + K16ac: H4 1-23
Array Heatmap signal, AIRE (PP) ([1]; GST-tagged AIRE (PP)): 0.5646
Array Heatmap signal, BAZ2B ([2]; GST-tagged BAZ2B): 0.5369
Array Heatmap signal, BPTF (PB) [3, 32]: 0.4178
Array Heatmap signal, CHD4 (PPCC) [4, 33]: 0.5585
Array Heatmap signal, CHD5 (PCC) [5, 34]: 0.8346
Array Heatmap signal, CHD5 (PPCC) [6, 35]: 0.5534
Array Heatmap signal, DIDO1 ([7]; GST-tagged DIDO1): 0.6106
Array Heatmap signal, DPF2 (PPC2W2) [8, 36]: 0.6508
Array Heatmap signal, ING1 ([9]; GST-tagged ING1): 0.4878
Array Heatmap signal, ING2 ([10]; GST-tagged ING2): 0.572
Array Heatmap signal, ING3 ([11]; GST-tagged ING3): 0.4391
Array Heatmap signal, ING4 ([12]; GST-tagged ING4): 0.4555
Array Heatmap signal, ING5 ([13]; GST-tagged ING5): 0.371
Array Heatmap signal, KDM4C (TTP) [14, 37]: 0.5368
Array Heatmap signal, KDM5A (1) ([15]; GST-tagged KDM5A (1)): 0.4894
Array Heatmap signal, KDM5A (3) ([16]; GST-tagged KDM5A (3)): 0.4106
Array Heatmap signal, KDM5B (1) ([17]; GST-tagged KDM5B (1)): 0.7197
Array Heatmap signal, KDM5B (3) ([18]; GST-tagged KDM5B (3)): 0.5025
Array Heatmap signal, KDM7A ([19]; GST-tagged KDM7A): 0.4726
Array Heatmap signal, MLL5 ([20]; GST-tagged MLL5): 0.5322
Array Heatmap signal, MORC3 (CW) [21, 38]: 0.3746
Array Heatmap signal, PHF13 ([22]; GST-tagged PHF13): 0.598
Array Heatmap signal, PHF21A ([23]; GST-tagged PHF21A): 0.4657
Array Heatmap signal, PHF23 ([24]; GST-tagged PHF23): 0.4802
Array Heatmap signal, PHF2 ([25]; GST-tagged PHF2): 0.443
Array Heatmap signal, PHF8 ([26]; GST-tagged PHF8): 0.3604
Array Heatmap signal, PHRF1 (RP) ([27]; GST-tagged PHRF1 (RP)): 0.436
Array Heatmap signal, RAG2 ([28]; GST-tagged RAG2): 0.2398
Array Heatmap signal, SP140L ([29]; GST-tagged SP140L): 0.3494
Array Heatmap signal, TAF3 ([30]; GST-tagged TAF3): 0.2729
Array Heatmap signal, TRIM66 (PB) [31, 39]: 0.6818
